{"source": "patent US20240342138A1", "about": "“MICROTUBULE TARGETING AGENTS” (BPGbio, Inc., priority 2023, published 2024)", "system": "HCT116 cells", "test": "Spindle assembly checkpoint activation, flow cytometry", "format": "cell-based", "settings": "300 nM; FIG. 6", "procedure": "• 1. Hct116 were grown in DMEM with 10% FBS and 1% Penicillin/Streptomycin. • 2. Cells were plated into 6 well dishes at indicated cell numbers below (i.e. plate 1=300 k cells per well) and treatment started later the same day. Asynchronous (Asynch) control cells (Plate 1 were collected 1 day after plating. Compound 1 and Nocodazole were both 300 nM, CDK1i Ro-3306 10 μM, Aurora Bi (ABi) Hesperadin 50 μM. • 3. Cells were treated with Compound 1 or Noc for 20 hours then sequentially without changing media they were treated with CDK1i or ABi for 4 more hours. Alternatively, cells were treated with Compound 1 or Noc for 20 h then washed twice with warm media and grown in fresh media for 4 hours to allow passage through mitosis into G1 as diploid cells. • 4. Note that plate 4 treatments were in general extremely toxic to cells or inconclusive.\n• 1. Collected all media and cells into the same conical tube. Centrifuged cells at 1000×g for 3 min. • 2. Aspirated off supernatant, washed with PBS. • 3. Centrifuged cells as above. • 4. Resuspended cells in cold 400 μl and while gently vortexing added 1 mL cold 100% ethanol slowly dropwise (fixes and permeabilizes) • 5. Stored at 4 degrees C. for at a minimum of 1 hour, or up to one week. • 6. […] Analyzed data with FlowJo 10 software and made graphs with GraphPad Prism."}
{"compound": "COc1ccccc1-c1nc(CNC(=O)c2ccccc2OC(F)F)n[nH]1", "note": "[Compound 1, 2-(difluoromethoxy)-N-[[5-(2-methoxyphenyl)-1H-1,2,4-triazol-3-yl]methyl]benzamide]", "values": [{"measurement": "Spindle assembly checkpoint activation, mechanism", "value": "a mechanism at or before microtubule-kinetochore attachment in M phase of the cell cycle"}]}
